Active and inactive are the calls of the source. The rule behind the calls is not given here.
Experiments:
[1] = tested on: A-431; test: Cytotoxicity against human A431 cells; type: cell-based
[2] = Cytotoxicity against human Nakata cells; type: cell-based
[3] = tested on: Phytophthora capsici; test: Antifungal activity against Phytophthora capsici by paper disk assay; type: functional, organism-based

With `C=CC(=C)CC(=C)/C(C)=C/CC/C=C/C=C(\C)C[C@@H]1O[C@@H](C(O)C(O)C(O)/C(C)=C/C=C/CNC(=O)/C=C/C=C/C(O)CC(O)C(O)C[C@H]2O[C@@H]([C@H]3C[C@H](O)[C@H](O)[C@@](C)(CO)O3)[C@H](O)C(O)[C@@H]2O)[C@@H](O)[C@H](O)[C@H]1O` (stereo partly drawn) [ZOOXANTHELLAMIDE D] the IC50 [1] was 4.5 µM, the IC50 [2] was 6.6 µM and the Activity [3] was “inactive”.

— ChEMBL document CHEMBL1142950, “Zooxanthellamide D, a polyhydroxy polyene amide from a marine dinoflagellate, and chemotaxonomic perspective of the Symbiodinium polyols” (J Nat Prod, 2007)
